{
  "source": "patent US20240125768A1",
  "about": "“METHODS FOR MODULATING A SRC-1 CONDENSATE” (ETERN BIOPHARMA (SHANGHAI) CO., LTD., priority 2021, published 2024)",
  "key": {"SRC-1 condensates": {"molecular_target": "T1, SRC-1 condensates (Homo sapiens, UniProt Q15788)", "T1 construct": "expressed in transfected cells; host or cells: SF268", "T1 sequence (Q15788 whole entry)": "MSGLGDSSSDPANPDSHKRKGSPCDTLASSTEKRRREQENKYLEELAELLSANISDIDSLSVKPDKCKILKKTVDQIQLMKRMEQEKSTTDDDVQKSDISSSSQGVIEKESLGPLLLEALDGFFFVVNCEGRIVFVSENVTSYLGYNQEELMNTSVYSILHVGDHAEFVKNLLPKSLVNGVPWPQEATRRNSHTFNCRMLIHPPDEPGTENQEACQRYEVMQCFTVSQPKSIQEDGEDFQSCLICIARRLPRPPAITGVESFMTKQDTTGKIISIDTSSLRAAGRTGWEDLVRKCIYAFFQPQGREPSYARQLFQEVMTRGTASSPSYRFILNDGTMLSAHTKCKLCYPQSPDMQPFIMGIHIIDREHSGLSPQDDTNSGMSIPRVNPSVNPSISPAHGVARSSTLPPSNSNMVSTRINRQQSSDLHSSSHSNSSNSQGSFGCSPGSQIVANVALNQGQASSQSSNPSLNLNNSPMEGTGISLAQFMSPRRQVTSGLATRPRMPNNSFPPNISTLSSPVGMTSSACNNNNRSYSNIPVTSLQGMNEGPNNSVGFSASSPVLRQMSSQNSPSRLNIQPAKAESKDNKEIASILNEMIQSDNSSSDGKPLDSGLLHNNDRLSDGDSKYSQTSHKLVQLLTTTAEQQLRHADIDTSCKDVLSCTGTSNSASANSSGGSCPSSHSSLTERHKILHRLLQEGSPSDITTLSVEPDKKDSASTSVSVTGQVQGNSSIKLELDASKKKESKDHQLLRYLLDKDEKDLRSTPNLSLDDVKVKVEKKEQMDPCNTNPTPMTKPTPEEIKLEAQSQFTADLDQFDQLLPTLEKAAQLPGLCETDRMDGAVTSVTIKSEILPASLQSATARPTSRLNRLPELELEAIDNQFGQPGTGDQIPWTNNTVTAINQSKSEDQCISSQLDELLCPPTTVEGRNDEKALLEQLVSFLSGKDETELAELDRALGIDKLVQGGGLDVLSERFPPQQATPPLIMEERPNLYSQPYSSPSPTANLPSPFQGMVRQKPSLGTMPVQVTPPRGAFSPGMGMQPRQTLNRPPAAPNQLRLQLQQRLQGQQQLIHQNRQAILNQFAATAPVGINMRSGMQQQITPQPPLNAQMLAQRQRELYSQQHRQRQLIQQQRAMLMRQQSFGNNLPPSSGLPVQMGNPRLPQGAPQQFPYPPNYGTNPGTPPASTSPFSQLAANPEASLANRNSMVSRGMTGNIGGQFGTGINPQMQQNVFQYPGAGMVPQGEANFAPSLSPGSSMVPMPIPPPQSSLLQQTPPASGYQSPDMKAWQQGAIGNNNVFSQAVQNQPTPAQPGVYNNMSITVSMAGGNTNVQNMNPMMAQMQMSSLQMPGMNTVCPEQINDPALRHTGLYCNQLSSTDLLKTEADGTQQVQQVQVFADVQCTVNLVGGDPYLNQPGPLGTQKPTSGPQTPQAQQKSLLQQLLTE", "assay": "Live cell imaging of SRC-1 condensates", "assay_type": "cell-based", "description": "(§1) Cells were grown on 24-well glass bottom plate (Cellvis, P24-1.5H-N) and images were taken with the Leica TCS SP8 confocal microscopy system using a 100× oil objective (NA=1.4). Cells were imaged on a heated stage(37° C.) and supplemented with warmed (37° C.) humidified air.\n(§2) For compounds treatment assay, SF268 cells were co-transfected with YAP5SA, TEAD4-mTagBFP2 and mNeoGreen-SRC1. YAP variant YAP5SA which is insensitive to the upstream Hippo pathway, sequestered YAP in nucleus. To circumvent the limitations brought by red fluorescent proteins, TEAD condensates which have been reported to depend on YAP, were used to characterize YAP/TEAD transcriptional condensates. Six hours after transfection, SF268 cells were seeded on 24-well glass bottom plate (Cellvis, P24-1.5H-N) and compounds were added two hours later. Cells were imaged every 30 mins after EVG or other compounds were added.\n(§3) Cells were grown on 24-well glass bottom plate (Cellvis, P24-1.5H-N) and images were taken with the Leica TCS SP8 confocal microscopy system using a 100× oil objective (NA=1.4). Cells were imaged on a heated stage (37° C.) and supplemented with warmed (37° C.) humidified air. […]\n(§4) Data was analyzed by images collected from 100 representative fields in each group. The spots quantification was performed based on the number and intensity of the spots through green (mNeoGreen-SRC1) and blue (TEAD4-mTagBFP2) channel. […]"}, "YAP/TEAD4 condensates": {"tested_on": "YAP/TEAD4 condensates", "assay": "Live cell imaging of YAP/TEAD condensates", "assay_type": "cell-based", "conditions": "H1299 cells co-transfected with YAP5SA, TEAD4-mTagBFP, mNeoGreen-SRC1; 20 μM", "description": "as §1, §2, §3, §4"}, "YAP [1]": {"tested_on": "YAP", "assay": "Anti-YAP immunofluorescence staining in A549 cells (YAP nuclear translocation)", "assay_type": "cell-based", "conditions": "anti-YAP antibody and DAPI", "source_text": "FIG. 7H illustrates A549 cells treated with DMSO, EVG or PC(Positive compound) were stained with anti-YAP antibody and DAPI. […] Scale bar represents 40 μm."}, "YAP [2]": {"tested_on": "YAP", "assay": "Western blotting / YAP phostag immunoblotting in SF268 cells", "assay_type": "cell-based, human", "conditions": "20 μM", "description": "FIG. 7F illustrates SF268 cells were treated with 20 μM elvitegravir (EVG) or […] (PC) for the indicated times and subjected to western blotting analysis.\nFIG. 7G illustrates SF268 cells treated with EVG or PC (fedratinib—an inhibitor of the non-receptor tyrosine kinase JAK2 which affects YAP nuclear translocation and phosphorylation) were examined by YAP phostag immunoblotting."}, "[3]": {"tested_on": "SRC-1's binding with YAP and TEAD", "assay": "FLAG pulldown assay with recombinant proteins", "conditions": "in vitro pulldown, concentrations up to 400 μM", "description": "FIG. 7N illustrates purified Flag-SRC-1 protein was mixed with YAP and/or TEAD4 in the presence of increasing concentrations of EVG and was subjected to three independent pull-downs using anti-flag beads.\nThree independent pull down assays were performed to detect the direct binding between SRC1 and YAP/TEAD4. Purified FLAG-SRC1 truncated proteins were incubated with YAP, TEAD4 and YAP plus TEAD4 respectively, and further subjected to pull down assays by ANTI-FLAG® M2 Affinity Gel (A2220, Sigma-Aldrich). Elvitegravir was co-incubated with the mixtures at increasing concentrations (0, 50, 200, 400 μM) as indicated. Complexes were washed in PBS buffer and proteins were eluted using 2×SDS loading buffer."}, "lung cancer cell lines": {"tested_on": "lung cancer cell lines", "assay": "Cell proliferation of lung cancer cell lines", "assay_type": "cell-based", "description": "FIG. 7V illustrates cell proliferation (lung cancer cells and normal cells) affected by the treatment with elvitegravir. Error bars show mean±s.e.m. (n=3).\n(§5) After 6 days [or other time period as indicated] culture, cell viability was measured using CellTiter-Glo® Luminescent Cell Viability Assay (Promega, G7572) and DMSO group was used as normalization to calculate half maximal inhibitory concentration (IC50) using Graphpad Prism software."}, "A549 cells": {"tested_on": "A549 cells", "assay": "Anti-proliferative effects in SRC-1 knockdown A549 cells", "assay_type": "cell-based", "conditions": "SRC-1 knockdown vs control", "description": "FIG. 7W illustrates the anti-proliferative effects of EVG in SRC1 knockdown and control cells. Data represent mean±s.e.m. (n=3).\nas §5"}, "BEAS-2B cell colonies": {"tested_on": "BEAS-2B cell colonies", "assay": "BEAS-2B colonies co-expressing SRC-1 and YAP", "assay_type": "cell-based, human", "conditions": "SRC-1 and YAP co-expressed BEAS-2B cell colonies", "source_text": "FIG. 7X illustrates the colonies of BEAS-2B cells overexpressing with both YAP and SRC-1 treated w/o EVG.\nTo explore whether SRC-1 and YAP cooperate in driving tumorigenesis, normal human lung bronchial epithelium cells (BEAS-2B) was transformed with YAP and/or SRC-1."}},
  "note": "“Also recorded” adds a separate entry of the source.",
  "data": [
    {"smiles": "COc1cc2c(cc1Cc1cccc(Cl)c1F)c(=O)c(C(=O)O)cn2[C@H](CO)C(C)C", "note": "[EVG, 6-[(3-chloro-2-fluorophenyl)methyl]-1-[(2S)-1-hydroxy-3-methylbutan-2-yl]-7-methoxy-4-oxoquinoline-3-carboxylic acid]", "values": [
      {"measurement": "SRC-1 condensates / SRC1 phase separation (LLPS)", "setting": "SRC-1 condensates; H1299 cells co-transfected with YAP5SA, TEAD4-mTagBFP, mNeoGreen-SRC1, 20 μM", "value": "impaired; also recorded: selectively disrupted"},
      {"measurement": "nuclear SRC-1 puncta formation", "setting": "SRC-1 condensates; H1299 cells expressing either mNeoGreen or mScarlet labeled SRC-1, time course", "value": "impaired the LLPS of SRC-1 in time-dependent manner; also recorded: suppressed"},
      {"measurement": "YAP/TEAD condensates", "setting": "YAP/TEAD4 condensates", "value": "remained intact; also recorded: but not the YAP/TEAD4 condensates"},
      {"measurement": "YAP nuclear translocation", "setting": "YAP [1]", "value": "remained in nucleus; also recorded: unaffected"},
      {"measurement": "phosphorylation pattern in YAP", "setting": "YAP [2]", "value": "unaffected"},
      {"measurement": "SRC-1's binding with YAP and TEAD", "setting": "[3]", "value": "did not affect"},
      {"measurement": "proliferation of lung cancer cell lines", "setting": "lung cancer cell lines", "value": "effectively inhibited"},
      {"measurement": "anti-proliferative effects after inducible knockdown of SRC-1", "setting": "A549 cells", "value": "partially resistant"},
      {"measurement": "migratory activity at the outer colony border", "setting": "BEAS-2B cell colonies", "value": "dramatically inhibited"}
    ]}
  ]
}
